Results taken from US12544463B2, “Deuterium substituted positron emission tomography (PET) imaging agents and their pharmacological application” (Five Eleven Pharma Inc., priority 2017, dated 2026).

Key:
[1] = Biodistribution study in mice; format: in vivo; settings: for Biodistribution Blood / Biodistribution Bone / Biodistribution Brain / Biodistribution Heart / Biodistribution Kidney / Biodistribution Liver / Biodistribution Lung / Biodistribution Muscle / Biodistribution Pancreas / Biodistribution Skin / Biodistribution Spleen: normal male mice
Description: Three mice per group were used for biodistribution study. While under isoflurane anesthesia, 0.1 mL of a saline solution containing radioactive tracer was injected into tail vein. The mice were sacrificed at the time indicated by cardiac excision while under isoflurane anesthesia. Organs of interest were removed and weighed, and the radioactivity was counted. The percent dose per organ was calculated by comparing the tissue counts to counts of 1% of the initial dose (100 times diluted aliquots of the injected material) measured at the same time.

VMAT2 = target: T1, VMAT2 (Rattus norvegicus, UniProt Q01827); assay: Regional brain distribution and ratio vs cerebellum in rats (VMAT2 tracers); format: in vivo; settings: IV
T1 construct: from tissue; host or cells: live rats (normal male CD rats), dissected brain regions
Description: (§1) Three rats per group were used for each biodistribution study. While under isoflurane anesthesia, 0.2 mL of a saline solution containing 20 μCi of radioactive tracer was injected into the femoral vein. The rats were sacrificed at the time indicated by cardiac excision while under isoflurane anesthesia. Organs of interest were removed and weighed, and the radioactivity was counted. The percent dose per organ was calculated by comparing the tissue counts to counts of 1% of the initial dose (100 times diluted aliquots of the injected material) measured at the same time. Regional brain distribution in rats was measured after an iv injection of the radioactive tracer. Samples from different brain regions (cortex, striatum, hippocampus, cerebellum and hypothalamus) were dissected, weighed and counted. The percentage dose/g of each sample was calculated by comparing sample counts with the counts of the diluted initial dose described above. The ratio was calculated by dividing the percentage dose/g of each region by that of the cerebellum. The cerebellum was used as the reference region for calculating the ratio of target to non-target binding, because only a trace amount of VMAT2 binding site is present in the cerebellum.

[2] = Biodistribution in rats: ^18F-FP-(+)DTBZ vs ^18F-FP-DTBZ-D6; format: in vivo, rat; settings: for Biodistribution Blood / Biodistribution Bone / Biodistribution Brain / Biodistribution Heart / Biodistribution Kidney / Biodistribution Liver / Biodistribution Lung / Biodistribution Muscle / Biodistribution Pancreas / Biodistribution Skin / Biodistribution Spleen: IV
Description: as §1

[3] = 60 min, listed as 18F-FP-DTBZ-D6 (^18F-Ia)
[4] = 120 min, listed as 18F-FP-DTBZ-D6 (^18F-Ia)

T1 sequence (Q01827 whole entry): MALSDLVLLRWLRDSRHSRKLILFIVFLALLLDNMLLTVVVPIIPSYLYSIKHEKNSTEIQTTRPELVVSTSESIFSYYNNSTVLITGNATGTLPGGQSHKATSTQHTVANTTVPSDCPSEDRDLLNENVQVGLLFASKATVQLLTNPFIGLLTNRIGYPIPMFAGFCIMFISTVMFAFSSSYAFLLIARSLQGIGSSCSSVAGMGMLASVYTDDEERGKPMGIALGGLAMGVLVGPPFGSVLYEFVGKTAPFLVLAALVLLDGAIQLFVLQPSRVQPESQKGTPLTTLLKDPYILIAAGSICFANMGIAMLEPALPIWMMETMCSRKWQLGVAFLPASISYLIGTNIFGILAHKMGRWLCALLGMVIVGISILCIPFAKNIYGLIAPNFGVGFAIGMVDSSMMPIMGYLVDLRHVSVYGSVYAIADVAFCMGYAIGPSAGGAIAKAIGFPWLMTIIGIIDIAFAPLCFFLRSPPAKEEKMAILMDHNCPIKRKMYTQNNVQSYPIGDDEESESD

[2H]C([2H])([2H])Nc1ccc(/C=C/c2ccc(OCCOCCOCC[18F])nc2)cc1 [^18F-AV-45-D3 (IIa1)]
brain uptake ([1]; mice, after i.v. injection): excellent brain uptake comparable to that observed to ^18F-AV-45
Biodistribution Blood ([1]; 2 min): 2.16 ± 0.05 % Dose/g
Biodistribution Bone ([1]; 2 min): 1.74 ± 0.18 % Dose/g
Biodistribution Brain ([1]; 2 min): 6.26 ± 0.23 % Dose/g
Biodistribution Heart ([1]; 2 min): 5.08 ± 0.39 % Dose/g
Biodistribution Kidney ([1]; 2 min): 9.51 ± 0.80 % Dose/g
Biodistribution Liver ([1]; 2 min): 12.0 ± 0.70 % Dose/g
Biodistribution Lung ([1]; 2 min): 4.88 ± 0.16 % Dose/g
Biodistribution Muscle ([1]; 2 min): 3.21 ± 0.14 % Dose/g
Biodistribution Pancreas ([1]; 2 min): 4.94 ± 0.77 % Dose/g
Biodistribution Skin ([1]; 2 min): 1.24 ± 0.27 % Dose/g
Biodistribution Spleen ([1]; 2 min): 2.50 ± 0.12 % Dose/g
Biodistribution Blood ([1]; 30 min): 2.93 ± 0.27 % Dose/g
Biodistribution Bone ([1]; 30 min): 2.24 ± 0.44 % Dose/g
Biodistribution Brain ([1]; 30 min): 1.71 ± 0.37 % Dose/g
Biodistribution Heart ([1]; 30 min): 2.40 ± 0.39 % Dose/g
Biodistribution Kidney ([1]; 30 min): 6.41 ± 1.86 % Dose/g
Biodistribution Liver ([1]; 30 min): 12.0 ± 0.71 % Dose/g
Biodistribution Lung ([1]; 30 min): 2.90 ± 0.47 % Dose/g
Biodistribution Muscle ([1]; 30 min): 1.79 ± 0.06 % Dose/g
Biodistribution Pancreas ([1]; 30 min): 2.05 ± 0.29 % Dose/g
Biodistribution Skin ([1]; 30 min): 2.07 ± 0.14 % Dose/g
Biodistribution Spleen ([1]; 30 min): 1.52 ± 0.21 % Dose/g
Biodistribution Blood ([1]; 60 min): 2.08 ± 0.07 % Dose/g
Biodistribution Bone ([1]; 60 min): 2.76 ± 0.37 % Dose/g
Biodistribution Brain ([1]; 60 min): 1.53 ± 0.20 % Dose/g
Biodistribution Heart ([1]; 60 min): 1.72 ± 0.19 % Dose/g
Biodistribution Kidney ([1]; 60 min): 3.74 ± 0.47 % Dose/g
Biodistribution Liver ([1]; 60 min): 8.15 ± 0.75 % Dose/g
Biodistribution Lung ([1]; 60 min): 1.97 ± 0.25 % Dose/g
Biodistribution Muscle ([1]; 60 min): 1.20 ± 0.04 % Dose/g
Biodistribution Pancreas ([1]; 60 min): 1.43 ± 0.20 % Dose/g
Biodistribution Skin ([1]; 60 min): 1.34 ± 0.07 % Dose/g
Biodistribution Spleen ([1]; 60 min): 1.22 ± 0.12 % Dose/g
Biodistribution Blood ([1]; 120 min): 1.36 ± 0.12 % Dose/g
Biodistribution Bone ([1]; 120 min): 4.41 ± 0.77 % Dose/g
Biodistribution Brain ([1]; 120 min): 1.26 ± 0.04 % Dose/g
Biodistribution Heart ([1]; 120 min): 1.18 ± 0.03 % Dose/g
Biodistribution Kidney ([1]; 120 min): 2.09 ± 0.02 % Dose/g
Biodistribution Liver ([1]; 120 min): 5.47 ± 0.29 % Dose/g
Biodistribution Lung ([1]; 120 min): 1.31 ± 0.03 % Dose/g
Biodistribution Muscle ([1]; 120 min): 0.75 ± 0.07 % Dose/g
Biodistribution Pancreas ([1]; 120 min): 0.87 ± 0.15 % Dose/g
Biodistribution Skin ([1]; 120 min): 0.91 ± 0.13 % Dose/g
Biodistribution Spleen ([1]; 120 min): 0.83 ± 0.07 % Dose/g

[2H]C([2H])([18F])C([2H])([2H])C([2H])([2H])Oc1cc2c(cc1OC)[C@H]1C[C@@H](O)[C@H](CC(C)C)CN1CC2 [^18F-FP-(+)DTBZ-D6 (^18F-Ia)]
Ratio vs. Cerebellum: Cerebellum (VMAT2; 2 min): 1.00 ± 0.00
Ratio vs. Cerebellum: Cortex (VMAT2; 2 min): 1.36 ± 0.05
Ratio vs. Cerebellum: Hippocampus (VMAT2; 2 min): 1.26 ± 0.04
Ratio vs. Cerebellum: Hypothalamus (VMAT2; 2 min): 1.71 ± 0.10
Ratio vs. Cerebellum: Remainder (VMAT2; 2 min): 1.33 ± 0.03
Ratio vs. Cerebellum: Striatum (VMAT2; 2 min): 2.08 ± 0.30
Regional Brain Distribution Cerebellum (VMAT2; 2 min): 0.48 ± 0.04 % dose/gram
Regional Brain Distribution Cortex (VMAT2; 2 min): 0.65 ± 0.07 % dose/gram
Regional Brain Distribution Hippocampus (VMAT2; 2 min): 0.60 ± 0.07 % dose/gram
Regional Brain Distribution Hypothalamus (VMAT2; 2 min): 0.82 ± 0.10 % dose/gram
Regional Brain Distribution Remainder (VMAT2; 2 min): 0.64 ± 0.07 % dose/gram
Regional Brain Distribution Striatum (VMAT2; 2 min): 1.00 ± 0.22 % dose/gram
Ratio vs. Cerebellum: Cerebellum (VMAT2; 60 min): 1.00 ± 0.00
Ratio vs. Cerebellum: Cortex (VMAT2; 60 min): 1.13 ± 0.02
Ratio vs. Cerebellum: Hippocampus (VMAT2; 60 min): 1.68 ± 0.12
Ratio vs. Cerebellum: Hypothalamus (VMAT2; 60 min): 3.93 ± 0.15
Ratio vs. Cerebellum: Remainder (VMAT2; 60 min): 1.59 ± 0.04
Ratio vs. Cerebellum: Striatum (VMAT2; 60 min): 6.05 ± 0.43
Regional Brain Distribution Cerebellum (VMAT2; 60 min): 0.23 ± 0.01 % dose/gram
Regional Brain Distribution Cortex (VMAT2; 60 min): 0.26 ± 0.01 % dose/gram
Regional Brain Distribution Hippocampus (VMAT2; 60 min): 0.39 ± 0.01 % dose/gram
Regional Brain Distribution Hypothalamus (VMAT2; 60 min): 0.91 ± 0.03 % dose/gram
Regional Brain Distribution Remainder (VMAT2; 60 min): 0.37 ± 0.02 % dose/gram
Regional Brain Distribution Striatum (VMAT2; 60 min): 1.40 ± 0.06 % dose/gram
Ratio vs. Cerebellum: Striatum (VMAT2; [3]): 6.05
Ratio vs. Cerebellum: Cerebellum (VMAT2; 120 min): 1.00 ± 0.00
Ratio vs. Cerebellum: Cortex (VMAT2; 120 min): 1.10 ± 0.09
Ratio vs. Cerebellum: Hippocampus (VMAT2; 120 min): 1.74 ± 0.32
Ratio vs. Cerebellum: Hypothalamus (VMAT2; 120 min): 3.56 ± 0.49
Ratio vs. Cerebellum: Remainder (VMAT2; 120 min): 1.52 ± 0.03
Ratio vs. Cerebellum: Striatum (VMAT2; 120 min): 5.49 ± 0.43
Regional Brain Distribution Cerebellum (VMAT2; 120 min): 0.18 ± 0.01 % dose/gram
Regional Brain Distribution Cortex (VMAT2; 120 min): 0.20 ± 0.00 % dose/gram
Regional Brain Distribution Hippocampus (VMAT2; 120 min): 0.31 ± 0.04 % dose/gram
Regional Brain Distribution Hypothalamus (VMAT2; 120 min): 0.65 ± 0.11 % dose/gram
Regional Brain Distribution Remainder (VMAT2; 120 min): 0.28 ± 0.02 % dose/gram
Regional Brain Distribution Striatum (VMAT2; 120 min): 1.00 ± 0.08 % dose/gram
increase in total brain uptake vs ^18F-FP-(+)DTBZ ([2]; 120 min after iv injection): 40%
Biodistribution Blood ([2]; 2 min): 0.23 ± 0.03 % dose/g
Biodistribution Bone ([2]; 2 min): 0.33 ± 0.04 % dose/g
Biodistribution Brain ([2]; 2 min): 0.64 ± 0.07 % dose/g
Biodistribution Heart ([2]; 2 min): 0.69 ± 0.12 % dose/g
Biodistribution Kidney ([2]; 2 min): 1.89 ± 0.07 % dose/g
Biodistribution Liver ([2]; 2 min): 2.79 ± 0.12 % dose/g
Biodistribution Lung ([2]; 2 min): 0.87 ± 0.05 % dose/g
Biodistribution Muscle ([2]; 2 min): 0.17 ± 0.02 % dose/g
Biodistribution Pancreas ([2]; 2 min): 2.62 ± 0.15 % dose/g
Biodistribution Skin ([2]; 2 min): 0.24 ± 0.02 % dose/g
Biodistribution Spleen ([2]; 2 min): 1.04 ± 0.10 % dose/g
Biodistribution Blood ([2]; 60 min): 0.11 ± 0.01 % dose/g
Biodistribution Bone ([2]; 60 min): 0.47 ± 0.02 % dose/g
Biodistribution Brain ([2]; 60 min): 0.44 ± 0.02 % dose/g
Biodistribution Heart ([2]; 60 min): 0.26 ± 0.01 % dose/g
Biodistribution Kidney ([2]; 60 min): 0.66 ± 0.04 % dose/g
Biodistribution Liver ([2]; 60 min): 3.19 ± 0.46 % dose/g
Biodistribution Lung ([2]; 60 min): 0.49 ± 0.00 % dose/g
Biodistribution Muscle ([2]; 60 min): 0.11 ± 0.00 % dose/g
Biodistribution Pancreas ([2]; 60 min): 5.01 ± 0.69 % dose/g
Biodistribution Skin ([2]; 60 min): 0.25 ± 0.01 % dose/g
Biodistribution Spleen ([2]; 60 min): 0.66 ± 0.03 % dose/g
Biodistribution Bone [2, 3]: 0.47 % dose/g
Biodistribution Blood ([2]; 120 min): 0.10 ± 0.00 % dose/g
Biodistribution Bone ([2]; 120 min): 0.65 ± 0.03 % dose/g
Biodistribution Brain ([2]; 120 min): 0.34 ± 0.02 % dose/g
Biodistribution Heart ([2]; 120 min): 0.21 ± 0.01 % dose/g
Biodistribution Kidney ([2]; 120 min): 0.59 ± 0.02 % dose/g
Biodistribution Liver ([2]; 120 min): 3.10 ± 0.49 % dose/g
Biodistribution Lung ([2]; 120 min): 0.41 ± 0.01 % dose/g
Biodistribution Muscle ([2]; 120 min): 0.09 ± 0.01 % dose/g
Biodistribution Pancreas ([2]; 120 min): 4.49 ± 0.17 % dose/g
Biodistribution Skin ([2]; 120 min): 0.21 ± 0.01 % dose/g
Biodistribution Spleen ([2]; 120 min): 0.51 ± 0.03 % dose/g
Biodistribution Bone [2, 4]: 0.65 % dose/g
Biodistribution Brain [2, 4]: 0.34 % dose/g
